Experimental data reported in patent US10301298B2, “Methods, compounds, and compositions for the treatment of angiotensin-related diseases” (University of Southern California, priority 2013, dated 2019).

Key:
db/db mice [1] = assay: Fasting blood glucose in db/db mice; type: in vivo
Experimental: Mice homozygous for the diabetes spontaneous mutation Lepr^db (BKS.Cg-Dock7^m+/+Lepr^db/J), which is an obese model of type 2 diabetes as a consequence of truncation of the leptin receptor, have verified plasma glucose levels >500 mg/dL prior to initiation of treatment. Food and water were available ad libitum, and all mice were kept on a 12-hour light/dark cycle. BKS.Cg-Dock7^m+/+Lepr^db/J mice and their heterozygous controls (n=6/group) were administered either saline (control), Ang-(1-7) (500 mcg/kg/day), or Compound 7 500 mcg/kg/day for two weeks by subcutaneous (SC) injection. Mice were fasted overnight prior to assessment of plasma glucose levels. Blood was taken from the saphenous vein and tested for glucose levels by a glucometer.

db/db mice [2] = assay: Liver lipid levels, Oil Red O staining, in db/db mice; type: in vivo; conditions: 500 mcg/kg/day, 14 days
Experimental: The lipid levels found in the liver was evaluated in db/db animals treated for 14 days with vehicle, 500 mcg/kg/day Ang(1-7) or Compound 7. Livers isolated from mice were harvested. Liver tissue sections were washed with cold saline and frozen in the presence of optimum cutting temperature (OCT) formulation. Tissues were then cut into 10-μm sections using a cryostat. Oil Red O staining and H&E staining were performed according to published procedures (Yang et al., 2013). The tissues were observed and images acquired using a light microscope (Olympus BX51) (FIG. 6).

C57Bl/6 mice = assay: Acute toxicity in C57Bl/6 mice; type: in vivo; conditions: 500 μg/kg subcutaneous or intravenous, 7 days after treatment
Experimental: Compound 7 was evaluated for acute toxicity at 500 μg/kg in C57Bl/6 mice that was given as either a subcutaneous or intravenous injection, and its safety was evaluated for 7 days after treatment.

Mas = target: T1, Mas (Homo sapiens, UniProt P04201); assay: Competition binding assay, displacement of fluorescent Ang(1-7) from Mas-transfected CHO cells; set-up: concentration or dose not given beside the values; conditions: CHO cells transfected with Human mas1, on ice
T1 construct: expressed in transfected cells
T1 sequence (P04201 1-325): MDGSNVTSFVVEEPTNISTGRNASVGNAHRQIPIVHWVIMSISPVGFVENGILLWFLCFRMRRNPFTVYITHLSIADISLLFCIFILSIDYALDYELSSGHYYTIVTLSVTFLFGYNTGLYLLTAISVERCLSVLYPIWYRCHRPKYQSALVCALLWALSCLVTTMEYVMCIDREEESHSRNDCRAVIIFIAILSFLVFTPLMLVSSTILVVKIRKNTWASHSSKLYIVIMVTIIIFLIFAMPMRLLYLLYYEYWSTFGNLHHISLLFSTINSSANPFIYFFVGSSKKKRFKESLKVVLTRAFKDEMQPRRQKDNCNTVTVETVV
Experimental: CHO cells stably transfected with recombinant Human mas1 proto-oncogen driven by the human cytomegalovirus were grown to 80% confluency. The cells were detached with trypsin and harvested by centrifugation. Cells were washed three times in progressively colder buffers. The final number of cells per assay was 5×10^5. All subsequent steps were performed on ice. Test compound was added to the cells for 10 minutes prior to addition of fluorescently labeled A(1-7). After 10 minutes further incubation, the cells were washed to remove unbound A(1-7) and the fluorescence bound was read at an excitation of 490 nm and an emission of 520 nm.

AT1R = target: T2, AT1R (Homo sapiens, UniProt P30556); assay: AT1R displacement assay with radiolabeled Ang II; type: binding; conditions: displacement of radiolabeled Ang II or analogs; read-out: EC50 displacing Ang II at the AT1 receptor
T2 sequence (P30556 1-359): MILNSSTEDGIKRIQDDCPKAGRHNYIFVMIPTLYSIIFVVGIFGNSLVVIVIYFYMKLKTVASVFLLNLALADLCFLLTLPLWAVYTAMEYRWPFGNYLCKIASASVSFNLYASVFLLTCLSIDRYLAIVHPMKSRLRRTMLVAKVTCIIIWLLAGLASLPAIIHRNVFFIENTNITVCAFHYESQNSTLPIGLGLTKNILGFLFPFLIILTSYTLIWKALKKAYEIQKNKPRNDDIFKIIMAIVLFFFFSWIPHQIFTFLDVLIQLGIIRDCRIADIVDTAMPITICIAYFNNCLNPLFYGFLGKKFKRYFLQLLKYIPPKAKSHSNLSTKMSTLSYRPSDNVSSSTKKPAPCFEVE
Experimental: Compound 7 was evaluated in vitro for its ability to compete with ratholabeled Ang II or analogs in a displacement assay for AT1R and AT2R receptors.

db/db mice [3] = assay: Bone marrow cell counts and progenitor colonies in db/db mice; type: in vivo; conditions: 500 mcg/kg/day subcutaneously, 14 days
Experimental: The femurs and tibia were collected from db/db mice treated 500 mcg/kg/day Ang(1-7) or Compound 7 subcutaneously for 14 days were euphanized and the bone marrow were collected by flushing with PBS containing 2% fetal calf serum. After collection of the bone marrow, the red blood cells will be lysed with a hypotonic solution (described above), mixed with 0.04% trypan blue and the number of nucleated cells was assessed by hematocytometer under light microscopy. Aliquots of cells were then resuspended at 1×10^6 cells/ml (GM and GEMM, bone marrow), 1.5×10^6 cells/ml (BFU-E, bone marrow). One hundred μ1 of each suspension was added to 900 μl of semisolid medium containing 0.9% methyl cellulose in Iscove's MDM, 15% fetal calf serum, 1% bovine serum albumin, 10 μg/ml bovine pancreatic insulin, 200 μg/ml human transferrin, 10^−4 M 2-mercaptoethanol, 2 mM glutamine, 10 ng/ml recombinant murine interleukin 3, 10 ng/ml recombinant human interleukin 6, 50 ng/ml recombinant murine stem cell factor and 3 units/ml erthropoietin. This mixture was then added to duplicate wells of a 24 well plate. The cultures were then placed at 37° C. in a humidified atmosphere of 5% CO2 in air. At day 14, the number of progenitor colonies formed was enumerated under phase contrast microscopy.
The bone marrow cells were also cultured to assess the number of MSCs by a CFU—F assay. 2.5×10^5 cells/ml, 2 ml per well, were diluted into Mesencult medium (Stem Cell Technologies, Vancouver, BC, Canada) and 2 mL were placed in each well of a 24 well plate. The cultures were then incubated at 37° C. in a humidified atmosphere of 5% CO2 in air. At days 2, 5 and 8, the number of progenitor colonies formed was enumerated under phase contrast microscopy.

SMILES: CCCCOC(=O)NS(=O)(=O)c1ccc(OC(F)(F)F)cc1-c1ccc(Cn2ccnc2)cn1 [Compound 7, butyl (2-(5-((1H-imidazol-1-yl)methyl)pyridin-2-yl)-4-(trifluoromethoxy)phenyl)sulfonylcarbamate]
- reduction of peripheral glucose versus vehicle or Ang(1-7) treated mice (db/db mice [1]; 500 μg/kg/day, 14 days): > 40%
- reduction of FBG in terms of the excess blood glucose over non-diabetic controls (db/db mice [1]; 500 mcg/kg/day SC, two weeks): 72%
- fasting blood glucose (FBG) versus db/db mice treated with saline (db/db mice [1]; 500 mcg/kg/day SC, two weeks, p<0.05): significantly lower
- Oil Red staining of liver (lipid deposition) compared with db/db controls (db/db mice [2]): reduced Oil Red staining
- acute toxicity (C57Bl/6 mice): No overt signs of toxicity
- % Displacement (Mas): 28.1%
- EC50 (AT1R): > 10 µM
- bone marrow counts (db/db mice [3]): increase bone marrow counts
- increase in bone marrow cell number, CFU-GEMM, CFU-GM, BFU-E and MSC (db/db mice [3]): comparable to Ang(1-7)
- bone marrow counts (db/db mice [3]; listed as compound 7): increased the bone marrow counts
